Assay results from patent US10342796B2, “Acrylanilide derivative, preparation method, and applications thereof in pharmacy” (Ancureall Pharmaceutical (Shanghai) Co., Ltd., priority 2015, dated 2019).
Read-outs that look alike come from different tables or passages of the source.

Assays:
Experiment in all cases: Growth inhibition GI50 in vitro (CCK8/MTT, 72 h)
AU565 (Her2 amp) = format: cell-based, human; details: Homo sapiens
[1] = system: H460 (EGFR wt, Kras G61H); format: cell-based, human; details: Homo sapiens, NCI-H460
A549 (EGFR WT) = format: cell-based, human; details: Homo sapiens
[2] = system: A431 (EGFR WT, amplification and high expression); format: cell-based, human; details: Homo sapiens, A-431
[3] = system: H1299 (EGFR wt, Nras Q61K); format: cell-based, human; details: Homo sapiens, NCI-H1299
Calu-3 (Her2 amp) = format: cell-based; details: Homo sapiens
H292 (EGFR WT) = format: cell-based; details: Homo sapiens, NCI-H292
HCC827 (EGFR dE746-A750) = format: cell-based, human; details: Homo sapiens
PC-9 (EGFR dE746-A750) = format: cell-based, human; details: Homo sapiens
[4] = system: PC-9ER (EGFR delE746-A750/T790M); format: cell-based, human; details: Homo sapiens, PC-9/ER; EGFR mutant cell line; range of GI50; read-out: GI50 PC9ER
H1975 (EGFR L858R/T790M) = format: cell-based, human; details: Homo sapiens, NCI-H1975
SK-BR-3 (Her2 amp) = format: cell-based, human; details: Homo sapiens
N87 (HER2 Amp) = format: cell-based, human; details: Homo sapiens
[5] = AU565, HER2 positive cell line, range of GI50, read-out: GI50 AU-565
[6] = AU565, EGFR wt, Her2 amp, read-out: GI50
[7] = EGFR wild type cell line, range of GI50, read-out: GI50 H460
[8] = H460, EGFR wt, Kras G61H, read-out: GI50
[9] = A549, EGFR wild type cell line, range of GI50, read-out: GI50 A549
[10] = A549, EGFR wt, Kras G12S, read-out: GI50
[11] = EGFR wild type cell line, range of GI50, read-out: GI50 A431
[12] = EGFR wild type cell line, range of GI50, read-out: GI50 H1299
[13] = H1299, EGFR wt, Nras Q61K, read-out: GI50
[14] = Calu-3, EGFR wt, Her2 amp, read-out: GI50
[15] = HCC827, EGFR mutant cell line, range of GI50, read-out: GI50 HCC827
[16] = HCC827, EGFR dE746-A750, read-out: GI50
[17] = EGFR mutant cell line, range of GI50, read-out: GI50 PC-9
[18] = PC-9, EGFR dE746-A750, read-out: GI50
[19] = EGFR mutant cell line, range of GI50, read-out: GI50 H1975
[20] = H1975, EGFR L858R/T790M, read-out: GI50
[21] = SK-BR-3, HER2 positive cell line, range of GI50, read-out: GI50 SK-BR-3
[22] = SK-BR-3, EGFR wt, Her2 amp, read-out: GI50
[23] = HER2 positive cell line, range of GI50, read-out: GI50 N87
[24] = N87, EGFR wt, Her2 amp, read-out: GI50

| GI50 [1, 7] [nM] | GI50 [1, 8] [nM] | GI50 (A549 (EGFR WT); [9]) [nM] | GI50 (A549 (EGFR WT); [10]) [nM] | GI50 ([2]; A431, EGFR wt, read-out: GI50) [nM] | GI50 [2, 11] [nM] | GI50 [3, 12] [nM] | GI50 [3, 13] [nM] | GI50 (Calu-3 (Her2 amp); [14]) [nM] | GI50 (H292 (EGFR WT); H292, EGFR wt, read-out: GI50) [nM] | GI50 (HCC827 (EGFR dE746-A750); [15]) [nM] | GI50 (HCC827 (EGFR dE746-A750); [16]) [nM] | GI50 (PC-9 (EGFR dE746-A750); [17]) [nM] | GI50 (PC-9 (EGFR dE746-A750); [18]) [nM] | GI50 [4] [nM] | GI50 (H1975 (EGFR L858R/T790M); [19]) [nM] | GI50 (SK-BR-3 (Her2 amp); [21]) [nM] | Compound | GI50 (AU565 (Her2 amp); [5]) [nM] | GI50 (AU565 (Her2 amp); [6]) [nM] | GI50 (N87 (HER2 Amp); [23]) [nM] | also measured |
| --- | --- | --- | --- | --- | --- | --- | --- | --- | --- | --- | --- | --- | --- | --- | --- | --- | --- | --- | --- | --- | --- |
| > 1000 | > 1000 | > 1000 | 896 | 37.5 | 10 to 100 | > 1000 | > 1000 | 12.5 | > 1000 | < 10 | 4.7 | < 10 | 0.58 | < 10 | < 10 | < 10 | C=CC(=O)Nc1cc(Nc2cc(Nc3ccc(F)c(Cl)c3)ncn2)c(OC)cc1N1CCN(C2CCN(C)CC2)CC1 [Compound 147, N-(5-(6-(3-chloro-4-fluoro-phenylamino)-pyrimidin-4-ylamino)-4-methoxyl-2-(4-(1-methylpiperidin-4-yl)-piperazin-1-yl)-phenyl)-acrylamide] | < 10 | 2.6 | < 10 | GI50 (H1975 (EGFR L858R/T790M); [20]): 4.6 nM; GI50 (SK-BR-3 (Her2 amp); [22]): 5.6 nM; GI50 (N87 (HER2 Amp); [24]): 4.8 nM |
| > 1000 | > 1000 | > 1000 | > 1000 | 315 | 100 to 1000 | > 1000 | > 1000 | 23.4 | > 1000 | < 10 | 9 | < 10 | 3.38 | 10 to 100 | 10 to 100 | 10 to 100 | C=CC(=O)Nc1cc(Nc2cc(-c3cn(C(C)C)c4ccccc34)ncn2)c(OC)cc1N(C)CCN(C)C [Compound 183] | 10 to 100 | 19.5 | 10 to 100 | GI50 (H1975 (EGFR L858R/T790M); [20]): 12.5 nM; GI50 (SK-BR-3 (Her2 amp); [22]): 78.1 nM; GI50 (N87 (HER2 Amp); [24]): 19.5 nM |

More lines, now with the values behind:

| Compound | GI50 [1, 7] [nM] | GI50 [1, 8] [nM] | GI50 (A549 (EGFR WT); [9]) [nM] | GI50 (A549 (EGFR WT); [10]) [nM] | GI50 ([2]; A431, EGFR wt, read-out: GI50) [nM] | GI50 [2, 11] [nM] | GI50 [3, 12] [nM] | GI50 [3, 13] [nM] | GI50 (Calu-3 (Her2 amp); [14]) [nM] | GI50 (H292 (EGFR WT); H292, EGFR wt, read-out: GI50) [nM] | GI50 (HCC827 (EGFR dE746-A750); [15]) [nM] | GI50 (HCC827 (EGFR dE746-A750); [16]) [nM] | GI50 (PC-9 (EGFR dE746-A750); [17]) [nM] | GI50 (PC-9 (EGFR dE746-A750); [18]) [nM] | GI50 [4] [nM] | GI50 (H1975 (EGFR L858R/T790M); [19]) [nM] | GI50 (SK-BR-3 (Her2 amp); [21]) [nM] | GI50 (AU565 (Her2 amp); [5]) [nM] | GI50 (AU565 (Her2 amp); [6]) [nM] | GI50 (N87 (HER2 Amp); [23]) [nM] | also measured |
| --- | --- | --- | --- | --- | --- | --- | --- | --- | --- | --- | --- | --- | --- | --- | --- | --- | --- | --- | --- | --- | --- |
| C=CC(=O)Nc1cc(Nc2ncnc(Nc3cccc(F)c3)n2)c(OC)cc1N(C)CCN(C)C [Compound 114, N-(5-(4-(3-fluoro-phenylamino)-[1,3,5]triazin-2-ylamino)-2-((2-dimethylamino-ethyl)-methyl-amino)-4-methoxyl-phenyl)-acrylamide] | > 1000 | > 1000 | > 1000 | > 1000 | 117 | 100 to 1000 | > 1000 | > 1000 | 7.2 | > 1000 | < 10 | 1.1 | < 10 | 2 | 10 to 100 | 10 to 100 | < 10 | < 10 | 10 | < 10 | GI50 (H1975 (EGFR L858R/T790M); [20]): 10 nM; GI50 (SK-BR-3 (Her2 amp); [22]): 4.8 nM; GI50 (N87 (HER2 Amp); [24]): 4.8 nM |
| C=CC(=O)Nc1cc(Nc2cc(Nc3cc(OC)c(Cl)cc3Cl)ncn2)c(OC)cc1N(C)CCN(C)C [Compound 136, N-(5-(6-(2,4-dichloro-5-methoxyl-phenylamino)-pyrimidin-4-ylamino)-2-((2-dimethylamino-ethyl)-methyl-amino)-4-methoxyl-phenyl)-acrylamide] | > 1000 | – | > 1000 | – | – | 100 to 1000 | > 1000 | – | – | – | 10 to 100 | – | 10 to 100 | – | < 10 | 10 to 100 | 10 to 100 | 10 to 100 | – | 10 to 100 | GI50 (A549 (EGFR WT); A549, Table 15, 1000 nM to 0.03 nM serial dilution, read-out: GI50 A549 (EGFR WT)): > 1000 nM; GI50 (Calu-3 (Her2 amp); Calu-3, Table 16, 1000 nM to 0.03 nM serial dilution, read-out: GI50 Calu3 (HER2 amp)): 14.7 nM; GI50 (H292 (EGFR WT); Table 15, 1000 nM to 0.03 nM serial dilution, read-out: GI50 H292 (EGFR WT)): > 1000 nM; GI50 (PC-9 (EGFR dE746-A750); Table 15, 1000 nM to 0.03 nM serial dilution, read-out: GI50 PC-9 (EGFR dE746-A750)): 10.5 nM; GI50 (H1975 (EGFR L858R/T790M); Table 15, 1000 nM to 0.03 nM serial dilution, read-out: GI50 H1975 (EGFR L858R/T790M)): 10.1 nM; GI50 (N87 (HER2 Amp); Table 16, 1000 nM to 0.03 nM serial dilution, read-out: GI50 N87 (HER2 amp)): 11.2 nM |
| C=CC(=O)Nc1cc(Nc2cc(Nc3ccc(F)c(Cl)c3)ncn2)c(OC)cc1N(C)CCN(C)C [Compound 140, N-(5-(6-(3-chloro-4-fluoro-phenylamino)-pyrimidin-4-ylamino)-2-((2-dimethylamino-ethyl)-methyl-amino)-4-methoxyl-phenyl)-acrylamide] | > 1000 | > 1000 | > 1000 | > 1000 | 37.5 | 10 to 100 | > 1000 | > 1000 | 12.5 | > 1000 | < 10 | 1.1 | < 10 | 0.38 | < 10 | < 10 | < 10 | < 10 | 2.6 | < 10 | GI50 (H1975 (EGFR L858R/T790M); [20]): 3.8 nM; GI50 (SK-BR-3 (Her2 amp); [22]): 5.6 nM; GI50 (N87 (HER2 Amp); [24]): 4.8 nM |
